Measured values from PubChem BioAssay AID328 (DTP/NCI, 2004).
Inconclusive results and toxic doses are left out.

Legend:
[1] = tested on: BDF1 mice, P388 leukemia ip; assay: NCI In Vivo Anticancer Drug Screen. Data for tumor model P388 Leukemia (intraperitoneal) in B6D2F1 (BDF1) mice; details: endpoint: mean survival time, higher = longer survival
Procedure, shortened: (§1)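 T/C = treated-group survival ÷ vehicle-control survival; tumour transplanted into mice before dosing.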

[2] = tested on: BDF1 mice, P388 leukemia ip, median survival T/C; assay: as above; details: endpoint: median survival time, higher = longer survival
Procedure, shortened: as §1

[3] = dose: 50.0 mg/kg/injection, schedule: Q01DX009 (ip), vehicle: Klucel (hydroxypropylcellulose) (HPC)
[4] = dose: 200.0 mg/kg/injection, schedule: Q04DX003 (ip), vehicle: Klucel (hydroxypropylcellulose) (HPC)

`CC1=C(C)C(=O)O[C@@H]([C@](C)(O)[C@]2(O)CC[C@@]3(O)[C@@H]4C[C@H]5O[C@]56CC=CC(=O)[C@]6(C)[C@H]4CC[C@]23C)C1` was tested, and the T/C ([1]; dose: 50.0 mg/kg/injection, schedule: Q02DX003 (ip), vehicle: saline) was 114 % of control and the T/C ([1]; dose: 100.0 mg/kg/injection, schedule: Q02DX003 (ip), vehicle: saline) was 117 % of control.
For `CCN(CC)CCCC(C)NC(=O)c1cccc2c(N)cccc12` (stereo not given), the T/C ([2]; dose: 25.0 mg/kg/injection, schedule: Q04DX003 (ip), vehicle: water) was 91 % of control, the T/C ([2]; dose: 50.0 mg/kg/injection, schedule: Q04DX003 (ip), vehicle: water) was 106 % of control and the T/C ([2]; dose: 100.0 mg/kg/injection, schedule: Q04DX003 (ip), vehicle: water) was 97 % of control. For the same compound, the T/C ([2]; dose: 200.0 mg/kg/injection, schedule: Q04DX003 (ip), vehicle: water) was 100 % of control, the T/C ([2]; dose: 400.0 mg/kg/injection, schedule: Q04DX003 (ip), vehicle: water) was 104 % of control and the T/C ([1]; dose: 25.0 mg/kg/injection, schedule: Q01DX009 (ip), vehicle: water) was 98 % of control. For the same compound, the T/C ([1]; dose: 50.0 mg/kg/injection, schedule: Q01DX009 (ip), vehicle: water) was 106 % of control, the T/C ([1]; dose: 100.0 mg/kg/injection, schedule: Q01DX009 (ip), vehicle: water) was 93 % of control and the T/C ([1]; dose: 200.0 mg/kg/injection, schedule: Q01DX009 (ip), vehicle: water) was 91 % of control. For the same compound, the T/C ([1]; dose: 400.0 mg/kg/injection, schedule: Q01DX009 (ip), vehicle: water) was 110 % of control.
For `CCC1(O)CC(OC2CC(N(C)C)C(OC3CC4OC5CC(=O)C(C)OC5OC4C(C)O3)C(C)O2)c2c(cc3c(c2O)C(=O)c2c(O)ccc(O)c2C3=O)C1C(=O)OC` (stereo not given), the T/C ([2]; dose: 0.75 mg/kg/injection, schedule: Q01DX001 (ip), vehicle: saline) was 104 % of control, the T/C ([2]; dose: 0.86 mg/kg/injection, schedule: Q04DX003 (ip), vehicle: water) was 121 % of control and the T/C ([2]; dose: 1.25 mg/kg/injection, schedule: Q01DX001 (ip), vehicle: saline) was 114 % of control. The T/C ([2]; dose: 1.3 mg/kg/injection, schedule: Q04DX003 (ip), vehicle: water) was 157 % of control, the T/C ([2]; dose: 1.5 mg/kg/injection, schedule: Q01DX001 (ip), vehicle: saline) was 109 % of control and the T/C ([2]; dose: 1.73 mg/kg/injection, schedule: Q04DX003 (ip), vehicle: water) was 155 % of control. The T/C ([2]; dose: 2.16 mg/kg/injection, schedule: Q04DX003 (ip), vehicle: water) was 191 % of control, the T/C ([2]; dose: 2.4 mg/kg/injection, schedule: Q04DX003 (ip), vehicle: water) was 165 % of control and the T/C ([2]; dose: 5.0 mg/kg/injection, schedule: Q01DX001 (ip), vehicle: saline) was 166 % of control. The T/C ([2]; dose: 10.0 mg/kg/injection, schedule: Q01DX001 (ip), vehicle: saline) was 195 % of control, the T/C ([1]; dose: 0.09 mg/kg/injection, schedule: Q01DX010 (ip), vehicle: saline) was 111 % of control and the T/C ([1]; dose: 0.38 mg/kg/injection, schedule: Q01DX010 (ip), vehicle: saline) was 95 % of control. For the same compound, the T/C ([1]; dose: 1.5 mg/kg/injection, schedule: Q01DX010 (ip), vehicle: saline) was 87 % of control.
`C1CCC2(CC1)SSC1(CCCCC1)S2` was tested, and the T/C ([2]; dose: 50.0 mg/kg/injection, schedule: Q01DX009 (ip), vehicle: other) was 104 % of control, the T/C ([2]; dose: 100.0 mg/kg/injection, schedule: Q01DX009 (ip), vehicle: other) was 100 % of control and the T/C ([2]; dose: 200.0 mg/kg/injection, schedule: Q01DX009 (ip), vehicle: other) was 95 % of control.
With `COC(=O)c1cc(C)c(Br)c(OC)c1` the T/C ([2]; dose: 12.0 mg/kg/injection, schedule: Q01DX009 (ip), vehicle: Klucel (hydroxypropylcellulose) (HPC)) was 95 % of control, the T/C ([2]; dose: 25.0 mg/kg/injection, schedule: Q01DX009 (ip), vehicle: Klucel (hydroxypropylcellulose) (HPC)) was 90 % of control and the T/C [2, 3] was 90 % of control.
With `ClCCN(CCCl)CCOc1ccc(-c2nc3ccccc3[nH]2)cc1` the T/C ([2]; dose: 12.5 mg/kg/injection, schedule: Q04DX002 (ip), vehicle: saline) was 189 % of control.
For `Nc1nc(N)c2cc(S(=O)(=O)c3ccc4ccccc4c3)ccc2n1`, the T/C [2, 3] was 90 % of control, the T/C ([2]; dose: 100.0 mg/kg/injection, schedule: Q01DX009 (ip), vehicle: Klucel (hydroxypropylcellulose) (HPC)) was 109 % of control and the T/C ([2]; dose: 100.0 mg/kg/injection, schedule: Q04DX003 (ip), vehicle: Klucel (hydroxypropylcellulose) (HPC)) was 90 % of control. For the same compound, the T/C ([2]; dose: 200.0 mg/kg/injection, schedule: Q01DX009 (ip), vehicle: Klucel (hydroxypropylcellulose) (HPC)) was 95 % of control, the T/C [2, 4] was 104 % of control and the T/C ([2]; dose: 400.0 mg/kg/injection, schedule: Q04DX003 (ip), vehicle: Klucel (hydroxypropylcellulose) (HPC)) was 104 % of control.
With `O=C(C[n+]1cc(Br)cc2ccccc21)c1ccc(O)c(O)c1` the T/C [2, 3] was 95 % of control, the T/C ([2]; dose: 176.0 mg/kg/injection, schedule: Q04DX003 (ip), vehicle: saline sonified) was 118 % of control and the T/C ([2]; dose: 200.0 mg/kg/injection, schedule: Q01DX009 (ip), vehicle: saline) was 170 % of control. For the same compound, the T/C [2, 4] was 110 % of control, the T/C ([2]; dose: 200.0 mg/kg/injection, schedule: Q04DX003 (ip), vehicle: saline sonified) was 122 % of control and the T/C ([2]; dose: 264.0 mg/kg/injection, schedule: Q01DX009 (ip), vehicle: saline with Tween-80) was 113 % of control. The T/C ([2]; dose: 400.0 mg/kg/injection, schedule: Q01DX009 (ip), vehicle: Klucel (hydroxypropylcellulose) (HPC)) was 115 % of control, the T/C ([2]; dose: 400.0 mg/kg/injection, schedule: Q01DX009 (ip), vehicle: saline) was 180 % of control and the T/C ([2]; dose: 400.0 mg/kg/injection, schedule: Q04DX003 (ip), vehicle: saline sonified) was 118 % of control.
`Oc1ccc2ccccc2c1Cc1c(O)ccc2ccccc12` was tested, and the T/C ([2]; dose: 50.0 mg/kg/injection, schedule: Q04DX003 (ip), vehicle: other) was 95 % of control, the T/C ([2]; dose: 100.0 mg/kg/injection, schedule: Q04DX003 (ip), vehicle: other) was 95 % of control and the T/C ([2]; dose: 200.0 mg/kg/injection, schedule: Q04DX003 (ip), vehicle: other) was 104 % of control.
